From patent US20230031406A1, “COMPOUNDS AND COMPOSITIONS FOR TREATING CONDITIONS ASSOCIATED WITH NLRP ACTIVITY” (Novartis AG, priority 2018, published 2023)
pIC50: −log10 of the molar value.

Test system: PMA-differentiated THP-1 cells
Assay: IL-1β production in PMA-differentiated THP-1 cells stimulated with gramicidin (hTHP-1 assay containing 2% fetal bovine serum; Procedures 1 and 2)
Assay type: cell-based, human
Conditions: Homo sapiens, THP-1, Table B2; 2% fetal bovine serum; class symbols; read-out: hTHP-1 IC50
In short: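 Compound titrations in 0.37% final DMSO were added to THP-1 cells that had been plated after 16-18 h PMA treatment, 50,000 per well in 2% FBS. One hour later the cells received gramicidin (5 μM, 2 h) and were centrifuged. HTRF detected IL-1β in the collected supernatants.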

| SMILES | pIC50 |
| --- | --- |
| Cc1c(C2CC2)nc2c(c1NC(=O)N=S(N)(=O)c1cc(C(C)(C)O)n(-c3ccccc3)n1)CCC2 (centres unmarked) [Compound 651, N′-((2-cyclopropyl-3-methyl-6,7-dihydro-5H-cyclopenta[b]pyridin-4-yl)carbamoyl)-5-(2-hydroxypropan-2-yl)-1-phenyl-1H-pyrazole-3-sulfonimidamide] | 4.52 to 5.30 |
| CC(O)c1nc(C(C)(C)O)sc1S(=N)(=O)NC(=O)Nc1c2c(nc3c1CCC3)CCC2 (single isomer, unassigned) [Compound 643a, (R, R/S) or (S, R/S)-N-((1,2,3,5,6,7-hexahydrodicyclopenta [b,e]pyridin-8-yl)carbamoyl)-4-(1-hydroxyethyl)-2-(2-hydroxypropan-2-yl) thiazole-5-sulfonimidamide] | 4.52 to 5.30 |

Next, values leading:

| pIC50 | SMILES |
| --- | --- |
| 6.00 to 6.70 | CCn1ccc([S@](N)(=O)=NC(=O)Nc2c3c(nc(C4CC4)c2C2CC2)CCC3)n1 [Compound 726b] |
| 5.30 to 6.00 | CC(C)(O)c1ncc(S(N)(=O)=NC(=O)Nc2c3c(nc4c2CCC4CF)CCC3)s1 (centres unmarked) [Compound 702, N′-((3-(fluoromethyl)-1,2,3,5,6,7-hexahydrodicyclopenta[b,e]pyridin-8-yl)carbamoyl)-2-(2-hydroxypropan-2-yl)thiazole-5-sulfonimidamide] |
| 5.30 to 6.00 | CC(C)(O)c1ccc(S(N)(=O)=NC(=O)Nc2c3c(nc4c2CCC4(C)C)CCC3)cn1 (single isomer, unassigned) [Compound 673a, (R) or (S)-N′-((3,3-dimethyl-1,2,3,5,6,7-hexahydrodicyclopenta [b,e]pyridin-8-yl)carbamoyl)-6-(2-hydroxypropan-2-yl)pyridine-3-sulfonimidamide] |
| 5.30 to 6.00 | COC(C)(C)c1ncc(S(N)(=O)=NC(=O)Nc2c3c(nc4c2CCC4)CCC3)s1 (centres unmarked) [Compound 693, N′-((1,2,3,5,6,7-hexahydrodicyclopenta[b,e]pyridin-8-yl)carbamoyl)-2-(2-methoxypropan-2-yl)thiazole-5-sulfonimidamide] |

Same assay, conditions: Homo sapiens, THP-1, Table B2; 2% fetal bovine serum; numeric bounds; read-out: hTHP-1 IC50

| pIC50 | SMILES |
| --- | --- |
| < 4.52 | CNCc1nc(C(C)(C)O)sc1S(N)(=O)=NC(=O)Nc1c2c(nc3c1CCC3(C)C)CCC2 (centres unmarked) [Compound 665, N-((3,3-dimethyl-1,2,3,5,6,7-hexahydrodicyclopenta[b,e]pyridin-8-yl)carbamoyl)-2-(2-hydroxypropan-2-yl)-4-((methylamino)methyl)thiazole-5-sulfonimidamide] |

Same assay, conditions: Homo sapiens, THP-1, Table B3; hTHP-1 assay, 2% fetal bovine serum; class symbols; read-out: IC50

| pIC50 | SMILES |
| --- | --- |
| 5.30 to 6.00 | CCn1ccc(S(N)(=O)=NC(=O)Nc2c(C)c(C(F)(F)F)nc3c2CCC3)n1 (centres unmarked) [Example 634, 1-Ethyl-N′-((3-methyl-2-(trifluoromethyl)-6,7-dihydro-5H-cyclopenta[b]pyridin-4-yl)carbamoyl)-1H-pyrazole-3-sulfonimidamide] |
| 4.52 to 5.30 | CC(C)(O)c1csc(S(N)(=O)=NC(=O)Nc2cc(C(F)(F)F)nc3c2CCC3)c1 (centres unmarked) [Example 567, 4-(2-Hydroxypropan-2-yl)-N′-((2-(trifluoromethyl)-6,7-dihydro-5H-cyclopenta[b]pyridin-4-yl)carbamoyl)thiophene-2-sulfonimidamide] |
| 6.70 to 7.40 | CC1(C)CCc2c1nc1c(c2NC(=O)N=S(N)(=O)c2nn(C(F)F)cc2F)CCC1 (centres unmarked) [Example 621, 1-(Difluoromethyl)-N′-((3,3-dimethyl-1,2,3,5,6,7-hexahydrodicyclopenta[b,e]pyridin-8-yl)carbamoyl)-4-fluoro-1H-pyrazole-3-sulfonimidamide] |

Same assay, conditions: Homo sapiens, THP-1, Table B4; 2% fetal bovine serum; class symbols; read-out: hTHP-1 IC50

| pIC50 | SMILES |
| --- | --- |
| 6.70 to 7.40 | CCn1cc(F)c(S(N)(=O)=NC(=O)Nc2c3c(nc(C(F)(F)F)c2-c2ccc(F)cc2)CCC3)n1 (centres unmarked) [Example 733, 1-Ethyl-4-fluoro-N′-((3-(4-fluorophenyl)-2-(trifluoromethyl)-6,7-dihydro-5H-cyclopenta[b]pyridin-4-yl)carbamoyl)-1H-pyrazole-3-sulfonimidamide] |
| 6.00 to 6.70 | NS(=O)(=NC(=O)Nc1c2c(nc(C3CC3)c1C1CC1)CCC2)c1nn(C(F)F)cc1F (centres unmarked) [Example 737, N′-((2,3-dicyclopropyl-6,7-dihydro-5H-cyclopenta[b]pyridin-4-yl)carbamoyl)-1-(difluoromethyl)-4-fluoro-1H-pyrazole-3-sulfonimidamide] |

Same assay, conditions: Table B1; 2% fetal bovine serum; class symbols; read-out: Average IC50 of compounds in hTHP-1 assay: hTHP-1 IC50

| pIC50 | SMILES |
| --- | --- |
| 4.52 to 5.30 | CC(C)(O)c1ncc(S(N)(=O)=NC(=O)Nc2c3c(nc4c2CCC4)CCC3)s1 (single isomer, unassigned) [Compound 128b, (S) or (R)-N′-((1,2,3,5,6,7-hexahydrodicyclo-penta[b,e]pyridin-8-yl)carbamoyl)-2-(2-hydroxypropan-2-yl)thiazole-5-sulfonimidamide] |
| 6.70 to 7.40 | CC1CCc2c1nc1c(c2NC(=O)N=S(N)(=O)c2cc(C(C)(C)O)cs2)CCC1 (single isomer, unassigned) [Compound 141b, (R,R/S) or (S,R/S)-4-(2-hydroxypropan-2-yl)-N′-((3-methyl-1,2,3,5,6,7-hexahydro-dicyclopenta[b,e]pyridin-8-yl)carbamoyl)thiophene-2-sulfonimidamide] |
| 6.70 to 7.40 | CC(C)(O)c1csc(S(N)(=O)=NC(=O)Nc2c3c(nc4c2CCC42CC2)CCC3)c1 (single isomer, unassigned) [Compound 114a, (R) or (S)-4-(2-hydroxy-propan-2-yl)-N′-((1′,5′,6′,7′-tetrahydro-2′H-spiro[cyclopropane-1,3′-dicyclopenta[b,e]pyridin]-8′-yl)carbamoyl)thiophene-2-sulfonimidamide] |
| 6.70 to 7.40 | CC1CCc2c1nc1c(c2NC(=O)N=S(N)(=O)c2ncc(C(C)(C)O)s2)CCC1 (single isomer, unassigned) [Compound 140a, (R,R/S) or (S,R/S)-5-(2-hydroxypropan-2-yl)-N′-((3-methyl-1,2,3,5,6,7-hexa-hydrodicyclo-penta[b,e]pyridin-8-yl)carbamoyl)thiazole-2-sulfonimidamide] |

Same assay, conditions: Table B2; 2% fetal bovine serum; class symbols; read-out: hTHP-1 IC50

| pIC50 | SMILES |
| --- | --- |
| 6.70 to 7.40 | Cc1c(C2CC2)nc2c(c1NC(=O)N=S(N)(=O)c1nc(C(C)(C)O)cs1)CCC2 (single isomer, unassigned) [Compound 626b, (R) or (S)-N′-((2-cyclopropyl-3-methyl-6,7-dihydro-5H-cyclopenta[b]pyridin-4-yl)carbamoyl)-4-(2-hydroxypropan-2-yl)thiazole-2-sulfonimidamide] |
| 6.70 to 7.40 | CC(C)(O)c1sc(S(N)(=O)=NC(=O)Nc2c3c(nc4c2CCC4(C)C)CCC3)nc1CO (single isomer, unassigned) [Compound 642b, (R) or (S)-N′-((3,3-dimethyl-1,2,3,5,6,7-hexahydrodicyclopenta [b,e]pyridin-8-yl)carbamoyl)-4-(hydroxymethyl)-5-(2-hydroxypropan-2-yl)thiazole-2-sulfonimidamide] |
| 4.52 to 5.30 | CC(C)c1cnc(F)c(C(C)C)c1NC(=O)N=S(N)(=O)c1cnc(C(C)(C)O)s1 (single isomer, unassigned) [Compound 115a, (S) or (R)-N′-((2-fluoro-3,5-diisopropylpyridin-4-yl)carbamoyl)-2-(2-hydroxypropan-2-yl)thiazole-5-sulfonimidamide] |
| 5.30 to 6.00 | CCc1c(C2CC2)nc2c(c1NC(=O)N=S(N)(=O)c1cc(C(C)(C)O)cs1)CCC2 (single isomer, unassigned) [Compound 181a, (S) or (R)-N′-((2-cyclopropyl-3-ethyl-6,7-dihydro-5H-cyclopenta[b]pyridin-4-yl)carbamoyl)-4-(2-hydroxypropan-2-yl)thiophene-2-sulfonimidamide] |
